The values below come from publication PMC3747596 (PLoS ONE, 2013).

The target of data set [1] is T1, 5-HT1a (Homo sapiens, UniProt P08908).
T1 sequence (P08908 1-422): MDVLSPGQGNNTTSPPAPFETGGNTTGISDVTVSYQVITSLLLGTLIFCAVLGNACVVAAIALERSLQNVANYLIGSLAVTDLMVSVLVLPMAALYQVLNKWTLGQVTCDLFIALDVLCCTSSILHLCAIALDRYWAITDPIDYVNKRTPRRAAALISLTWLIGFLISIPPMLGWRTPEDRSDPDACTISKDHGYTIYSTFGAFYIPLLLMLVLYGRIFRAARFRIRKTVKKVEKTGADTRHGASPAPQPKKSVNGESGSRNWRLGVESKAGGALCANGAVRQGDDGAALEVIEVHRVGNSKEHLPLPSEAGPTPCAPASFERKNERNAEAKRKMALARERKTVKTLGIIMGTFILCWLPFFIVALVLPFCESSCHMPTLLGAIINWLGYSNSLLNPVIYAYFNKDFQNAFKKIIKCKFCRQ
Put plainly: Radioligand displacement, 5-HT1a. It counts as binding. A general note: Displacement assays read how much labelled ligand stays bound in the presence of the test substance.

Data set [2] deals with T2, 5-HT3 (Homo sapiens, UniProt P46098).
T2 sequence (P46098 24-478): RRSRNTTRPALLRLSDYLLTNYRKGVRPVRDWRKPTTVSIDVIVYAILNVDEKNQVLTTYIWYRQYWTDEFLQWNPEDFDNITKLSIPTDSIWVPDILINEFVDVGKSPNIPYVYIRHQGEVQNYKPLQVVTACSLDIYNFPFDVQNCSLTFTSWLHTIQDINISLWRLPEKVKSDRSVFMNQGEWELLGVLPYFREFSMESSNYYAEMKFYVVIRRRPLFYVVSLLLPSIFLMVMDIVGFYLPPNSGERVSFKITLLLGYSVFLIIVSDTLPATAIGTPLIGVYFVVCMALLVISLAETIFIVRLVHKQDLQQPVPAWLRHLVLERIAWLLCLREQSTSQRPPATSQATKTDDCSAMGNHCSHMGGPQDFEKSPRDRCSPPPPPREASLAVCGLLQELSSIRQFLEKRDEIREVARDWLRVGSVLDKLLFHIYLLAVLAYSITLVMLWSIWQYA
Put plainly: Radioligand displacement, 5-HT3. The format is binding.

Data set [3] concerns the target 5-HT5a (Homo sapiens, UniProt P47898). Put plainly: Radioligand displacement, 5-HT5a. The format is binding.
The target in data set [4] is T3, α2B (Homo sapiens, UniProt P18089).
T3 sequence (P18089 1-450): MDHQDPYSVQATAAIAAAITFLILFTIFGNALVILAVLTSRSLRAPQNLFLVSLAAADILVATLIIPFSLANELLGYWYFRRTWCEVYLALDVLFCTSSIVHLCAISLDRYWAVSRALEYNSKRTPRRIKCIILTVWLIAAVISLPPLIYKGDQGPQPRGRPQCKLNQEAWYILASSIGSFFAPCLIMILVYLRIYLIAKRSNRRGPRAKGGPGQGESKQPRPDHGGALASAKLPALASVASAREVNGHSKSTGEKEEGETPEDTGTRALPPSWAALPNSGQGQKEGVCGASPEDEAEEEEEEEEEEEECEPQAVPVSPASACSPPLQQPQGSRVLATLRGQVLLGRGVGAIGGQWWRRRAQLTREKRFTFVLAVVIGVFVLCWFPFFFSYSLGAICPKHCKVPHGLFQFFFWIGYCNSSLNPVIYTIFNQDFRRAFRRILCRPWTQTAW
Put plainly: Radioligand displacement, α2B. It counts as binding.

The target in data set [5] is β1 (Homo sapiens, UniProt P08588). Put plainly: Radioligand displacement, β1. It counts as binding.
Data set [6] has as its target D2 (Homo sapiens, UniProt P14416). Put plainly: Radioligand displacement, D2. The format is binding.
The target in data set [7] is T4, D4 (Homo sapiens, UniProt P21917).
T4 sequence (P21917 1-419): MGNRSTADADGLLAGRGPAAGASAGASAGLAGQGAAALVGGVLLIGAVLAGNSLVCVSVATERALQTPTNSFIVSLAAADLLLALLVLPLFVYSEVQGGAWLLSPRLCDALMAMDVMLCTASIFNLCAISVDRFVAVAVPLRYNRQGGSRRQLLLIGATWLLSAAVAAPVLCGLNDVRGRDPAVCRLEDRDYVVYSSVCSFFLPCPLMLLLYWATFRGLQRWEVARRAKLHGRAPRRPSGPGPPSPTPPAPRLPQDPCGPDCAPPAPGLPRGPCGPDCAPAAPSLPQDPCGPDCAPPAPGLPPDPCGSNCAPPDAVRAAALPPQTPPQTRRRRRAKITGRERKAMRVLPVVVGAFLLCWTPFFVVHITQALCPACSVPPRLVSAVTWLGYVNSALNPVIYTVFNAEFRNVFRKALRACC
Put plainly: Radioligand displacement, D4. The format is binding.

In data set [8] the target is H4 (Homo sapiens, UniProt Q9H3N8). Put plainly: Radioligand displacement, H4. It counts as binding.
Data set [9] has as its target M2 (Homo sapiens, UniProt P08172). Put plainly: biochemical. It counts as binding.
Data set [10] has as its target noradrenaline (norepinephrine) transporter (NET) (Homo sapiens, UniProt P23975). Put plainly: Radioligand displacement, NET. The format is binding.
Data set [11] deals with σ1 (Rattus norvegicus, UniProt Q9R0C9). Put plainly: Radioligand displacement, σ1. It counts as binding.
For data set [12] the following is noted: cited from earlier work.
In data set [13] the target is T5, α2C-adrenoceptor (α2C-AR) (Homo sapiens, UniProt P18825).
T5 sequence (P18825 1-462): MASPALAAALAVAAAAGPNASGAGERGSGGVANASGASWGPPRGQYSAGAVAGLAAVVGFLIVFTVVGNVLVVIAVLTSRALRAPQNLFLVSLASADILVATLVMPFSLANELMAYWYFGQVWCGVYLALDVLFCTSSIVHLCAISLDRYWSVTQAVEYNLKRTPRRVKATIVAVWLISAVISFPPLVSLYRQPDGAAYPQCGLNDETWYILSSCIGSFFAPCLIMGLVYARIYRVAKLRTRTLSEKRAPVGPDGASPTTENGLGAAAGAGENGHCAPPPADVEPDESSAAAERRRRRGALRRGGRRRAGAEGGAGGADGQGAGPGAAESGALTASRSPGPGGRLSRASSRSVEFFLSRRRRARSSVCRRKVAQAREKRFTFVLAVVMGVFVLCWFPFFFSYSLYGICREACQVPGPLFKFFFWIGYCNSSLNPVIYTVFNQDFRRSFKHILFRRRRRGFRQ
Put plainly: Radioligand displacement, α2C.

[14] abbreviates: [3H] radioligand 8-OH-DPAT, Human, Cloned.
The mark [15] stands for this setting: [3H] radioligand Rauwolscine, Human, Cloned.
The mark [16] stands for this setting: Ki, [3H] radioligand QNB, Human, Cloned.
Setting [17] is: K i, α2C, radioligand displacement (Table 1).
Setting [18] is: Ki, [3H] radioligand Rauwolscine, Human, Cloned.
[19] abbreviates: [3H] radioligand N-Methylspiperone, Human, Cloned, read-out: Ki.

pKi: −log10 of the molar value. Read-outs that look alike come from different tables or passages of the source.

D2, sequence (P14416 whole entry): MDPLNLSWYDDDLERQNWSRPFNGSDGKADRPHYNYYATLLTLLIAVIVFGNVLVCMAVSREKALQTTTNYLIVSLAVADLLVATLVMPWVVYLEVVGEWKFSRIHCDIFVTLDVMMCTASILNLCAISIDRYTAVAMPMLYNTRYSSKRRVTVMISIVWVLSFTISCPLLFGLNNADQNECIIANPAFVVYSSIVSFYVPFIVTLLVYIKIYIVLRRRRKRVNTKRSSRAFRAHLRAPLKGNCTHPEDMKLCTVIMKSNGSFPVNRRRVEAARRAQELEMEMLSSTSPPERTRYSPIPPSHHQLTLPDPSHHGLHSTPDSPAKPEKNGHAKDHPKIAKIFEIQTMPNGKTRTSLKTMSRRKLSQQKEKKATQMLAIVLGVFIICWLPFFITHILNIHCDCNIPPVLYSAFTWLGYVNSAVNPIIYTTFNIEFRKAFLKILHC
H4, sequence (Q9H3N8 whole entry): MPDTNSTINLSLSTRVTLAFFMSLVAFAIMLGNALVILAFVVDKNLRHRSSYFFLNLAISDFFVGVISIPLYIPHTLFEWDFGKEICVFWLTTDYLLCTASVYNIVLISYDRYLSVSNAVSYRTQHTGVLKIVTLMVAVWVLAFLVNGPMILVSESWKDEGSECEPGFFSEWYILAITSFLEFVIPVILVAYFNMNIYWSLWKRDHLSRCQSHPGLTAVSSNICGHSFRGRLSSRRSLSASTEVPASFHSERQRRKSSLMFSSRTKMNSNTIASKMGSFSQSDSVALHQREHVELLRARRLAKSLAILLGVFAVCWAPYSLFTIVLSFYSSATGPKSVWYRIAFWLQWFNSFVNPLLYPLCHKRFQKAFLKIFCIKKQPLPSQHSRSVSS
noradrenaline (norepinephrine) transporter (NET), sequence (P23975 whole entry): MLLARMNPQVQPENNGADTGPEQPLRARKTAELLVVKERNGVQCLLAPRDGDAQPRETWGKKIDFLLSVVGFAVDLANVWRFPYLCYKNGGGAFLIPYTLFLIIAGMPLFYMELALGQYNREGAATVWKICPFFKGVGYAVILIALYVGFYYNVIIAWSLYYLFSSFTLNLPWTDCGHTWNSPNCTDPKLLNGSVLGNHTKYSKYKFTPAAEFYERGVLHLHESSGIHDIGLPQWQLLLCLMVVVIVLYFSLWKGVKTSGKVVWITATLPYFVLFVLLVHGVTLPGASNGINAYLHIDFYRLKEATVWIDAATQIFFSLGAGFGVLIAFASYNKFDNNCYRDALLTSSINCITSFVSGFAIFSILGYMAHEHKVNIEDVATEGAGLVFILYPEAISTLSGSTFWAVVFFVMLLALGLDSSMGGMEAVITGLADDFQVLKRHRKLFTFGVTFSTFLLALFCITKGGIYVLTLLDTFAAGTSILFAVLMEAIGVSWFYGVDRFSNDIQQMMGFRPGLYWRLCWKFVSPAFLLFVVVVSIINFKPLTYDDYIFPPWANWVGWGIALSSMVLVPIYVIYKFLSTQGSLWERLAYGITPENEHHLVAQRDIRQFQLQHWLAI
M2, sequence (P08172 whole entry): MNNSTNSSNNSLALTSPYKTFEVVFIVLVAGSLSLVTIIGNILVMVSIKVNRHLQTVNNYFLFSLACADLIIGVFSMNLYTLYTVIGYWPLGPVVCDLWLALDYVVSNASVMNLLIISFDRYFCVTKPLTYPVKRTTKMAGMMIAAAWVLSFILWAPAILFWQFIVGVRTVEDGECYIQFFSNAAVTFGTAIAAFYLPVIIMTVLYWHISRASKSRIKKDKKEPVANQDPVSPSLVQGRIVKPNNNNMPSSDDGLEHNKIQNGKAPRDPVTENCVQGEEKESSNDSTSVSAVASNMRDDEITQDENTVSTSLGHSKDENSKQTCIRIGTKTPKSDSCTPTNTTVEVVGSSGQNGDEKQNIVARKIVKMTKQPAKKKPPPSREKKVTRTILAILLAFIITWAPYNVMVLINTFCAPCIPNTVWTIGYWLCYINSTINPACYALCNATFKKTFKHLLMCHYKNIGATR
σ1, sequence (Q9R0C9 whole entry): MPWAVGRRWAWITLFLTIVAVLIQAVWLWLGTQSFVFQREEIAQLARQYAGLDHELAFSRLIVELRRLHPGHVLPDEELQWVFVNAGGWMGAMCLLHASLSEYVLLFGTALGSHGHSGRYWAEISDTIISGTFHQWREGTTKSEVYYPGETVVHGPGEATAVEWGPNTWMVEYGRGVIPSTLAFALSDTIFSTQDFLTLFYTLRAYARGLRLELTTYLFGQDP
β1, sequence (P08588 whole entry): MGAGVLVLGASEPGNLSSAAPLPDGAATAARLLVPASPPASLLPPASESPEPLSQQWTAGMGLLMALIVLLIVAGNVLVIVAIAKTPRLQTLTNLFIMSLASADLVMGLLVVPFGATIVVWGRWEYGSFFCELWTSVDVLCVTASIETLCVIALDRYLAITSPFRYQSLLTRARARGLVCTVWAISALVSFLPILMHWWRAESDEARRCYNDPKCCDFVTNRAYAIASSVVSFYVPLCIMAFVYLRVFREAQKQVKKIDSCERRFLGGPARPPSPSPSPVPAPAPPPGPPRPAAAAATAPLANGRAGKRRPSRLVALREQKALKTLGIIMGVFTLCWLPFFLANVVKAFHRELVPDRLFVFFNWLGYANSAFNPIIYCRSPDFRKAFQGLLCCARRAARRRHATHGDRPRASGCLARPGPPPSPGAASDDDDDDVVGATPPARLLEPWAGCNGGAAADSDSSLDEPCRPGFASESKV
5-HT5a, sequence (P47898 whole entry): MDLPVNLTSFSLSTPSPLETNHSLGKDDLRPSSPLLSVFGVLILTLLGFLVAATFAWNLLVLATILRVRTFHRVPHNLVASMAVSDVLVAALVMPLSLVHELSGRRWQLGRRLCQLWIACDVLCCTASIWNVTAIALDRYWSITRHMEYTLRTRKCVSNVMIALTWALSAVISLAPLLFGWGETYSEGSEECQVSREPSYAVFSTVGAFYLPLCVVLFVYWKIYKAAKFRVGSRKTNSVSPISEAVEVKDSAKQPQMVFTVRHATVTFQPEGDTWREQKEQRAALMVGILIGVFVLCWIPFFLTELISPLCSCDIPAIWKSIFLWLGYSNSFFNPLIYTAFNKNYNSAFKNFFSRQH

Consider `N=C(N)Nc1ccc2[nH]c3c(c2c1)C[C@@]1(O)[C@H]2Cc4ccc(O)c5c4[C@@]1(CCN2CC1CC1)[C@H]3O5` [GNTI, 5′-guanidinonaltrindole], for which the pKi in data set [1] (setting [14]), in data set [2], in data set [3], in data set [4] (setting [15]), in data set [5] and in [6] was ≤ 5.00 throughout. Besides, the pKi is ≤ 5.00 in data set [7]; ≤ 5.00 in data set [8]; 5.27 in [9] (setting [16]); 5.27 in data set [9] (Ki, binding curve File S1, M2 Receptor, [3H]QNB (0.1 nM), Muscarinic Binding Buffer); 5.27 in data set [9] (M2, radioligand displacement (Table 1), read-out: K i); ≤ 5.00 in data set [10]. For the same molecule, the pKi in [11] is ≤ 5.00; in data set [13] (setting [17]), 5.66; in data set [13] (setting [18]) it was 5.65; in data set [13] (Ki, binding curve File S1, Alpha2C Receptor, [125I]Clonidine (0.12 nM), Alpha2 Binding Buffer), 5.65. Also, the “estimate of the unbound brain concentration” value in [12] (after 39 mg/kg) is on record as 5 nM. The “peak unbound concentration in plasma” value in [12] (dose 10 mg/kg) is given as 2 µM; in data set [12] (dose 39 mg/kg), 8 µM. The figures for the “decline of plasma concentration” value in [12] (within 4 hours) and in data set [12] (within 24 hours) were “over 80%” and “over 98%”, respectively.

With `CC(C)[C@@H](CN1CC[C@@](C)(c2cccc(O)c2)[C@@H](C)C1)NC(=O)[C@H]1Cc2ccc(O)cc2CN1` [JDTic], the pKi is ≤ 5.00 in data set [1] (setting [14]); ≤ 5.00 in [2] ([3H] radioligand LY278584, Human, Cloned, read-out: Ki); ≤ 5.00 in data set [3] ([3H] radioligand LSD, Human, Cloned, read-out: Ki); ≤ 5.00 in data set [4] (setting [15]); ≤ 5.00 in data set [5] ([3H] radioligand CGP12177, Human, Heart, read-out: Ki); ≤ 5.00 in [6] (setting [19]). Further, the pKi in [7] (setting [19]) was ≤ 5.00; in data set [8] ([3H] radioligand Histamine, Human, Cloned, read-out: Ki), ≤ 5.00; in data set [9] ([3H] radioligand QNB, Human, Cloned, read-out: Ki), ≤ 5.00; in data set [9] (binding curve File S1, M2 Receptor, [3H]QNB (0.1 nM), Muscarinic Binding Buffer, read-out: Ki) it was < 5.00; in data set [10] (NET, versus [3H]nisoxetine (Table 1), read-out: K i) it was 7.27; in [11] ([3H] radioligand Pentazocine(+), Rat, Brain, read-out: Ki) it was 5.73. In addition, the pKi in data set [11] (binding curve File S1, Sigma-1 Receptor, [3H]Pentazocine (3.0 nM), Sigma Binding Buffer, read-out: Ki) was 5.73; in data set [11] (σ1, radioligand displacement (Table 1), read-out: K i), 5.72; in data set [13] it was ≤ 5.00. In data set [12] (dose 10 mg/kg), the “peak unbound concentration in plasma” value was 0.1 µM. The “decline of plasma concentration” value is “over 80%” in data set [12] (within 4 hours) and “over 98%” in data set [12] (within 24 hours).

On to `Oc1ccc2c3c1O[C@H]1c4[nH]c5c(c4C[C@@]4(O)[C@@H](C2)N(CC2CC2)CC[C@]314)C[C@@]1(O)[C@H]2Cc3ccc(O)c4c3[C@@]1(CCN2CC1CC1)[C@H]5O4` [nor-BNI, Nor-binaltorphimine], for which the pKi was 5.96 in [1] (5-HT1a, radioligand displacement (Table 1)); 5.95 in [1] (setting [14]); 5.96 in data set [1] (binding curve File S1, 5-HT1A Receptor, [3H]8-OH-DPAT (0.5 nM), Standard Binding Buffer); ≤ 5.00 in data set [2]; ≤ 5.00 in [3]; 5.84 in [4] (setting [15]). For the same molecule, the pKi was 5.84 in data set [4] (binding curve File S1, Alpha2B Receptor, [125I]Clonidine (0.12 nM), Alpha2 Binding Buffer); 5.82 in data set [4] (α2B, radioligand displacement (Table 1)); ≤ 5.00 in data set [5]; ≤ 5.00 in data set [6]; ≤ 5.00 in [7]; ≤ 5.00 in [8]. Also, the pKi in [9] (setting [16]) is ≤ 5.00; in data set [10], ≤ 5.00; in [11] it was ≤ 5.00; in data set [13] (setting [17]), 6.20; in data set [13] (setting [18]) it was 6.20. The “peak unbound concentration in plasma” value in data set [12] (dose 10 mg/kg) was 3 µM. In addition, the “decline of plasma concentration” value was “over 80%” in [12] (within 4 hours) and “over 98%” in data set [12] (within 24 hours).
